Where two headings read alike, the source gives them in different places. Values belong to the compound of their own block, whether it stands above or below them.
Legend:
pKa of the dyes A-OH = type: physicochemical
Excerpt: The compounds of the formula A--O--B can be used as substrates for the detection and the determination of hydrolases. The dye A--OH, which is liberated on cleavage, has appreciable advantages over those of the state of the art. […] This means that even in the pH range below 7 there is compared with p-nitrophenol, a considerably higher extinction at the same molarity, so that the new substrates prepared from these dyes can therefore be measured with considerably greater sensitivity.

[1] = Extinction coefficients and absorption maxima of dyes at different pH values; type: physicochemical
β-glucosidase = assay: Determination of β-glucosidase activity in a urine sample; type: biochemical, human; conditions: for Absorbance Difference/min delta A/min: T = 25° C.
Excerpt: The determination of β-glucosidase activity in human urine has hitherto not been possible with the usual assays because of their limited sensitivity.

IgE = assay: Determination of IgE with a state of the art enzyme immunoassay; conditions: same incubation periods; for absorbance change: measuring wavelength 405 nm, same sample
Experimental: A substantial increase in sensitivity could be achieved using the new substrates in an enzyme immunoassay of the state of the art. In this assay the IgE concentration is determined, as a measure of an allergy by means of the indirect antibody technique. With the same incubation periods for the different substrates, an approximately 4.3-fold higher absorbance for resorufin-β-galactoside (compound S6) and an approximately 1.7-fold higher absorbance for 3-hydroxy-2-nitropyridine-β-galacto-side was measured than for the commercially available o-nitrophenyl-β-galactoside.

α-amylase = assay: Determination of α-amylase activity in a urine sample without auxiliary enzyme α-glucosidase; type: biochemical; conditions: for absorbance change, fold greater than with the nitrophenyl derivative / delta A/min: urine sample; for delta A/min: without auxiliary enzyme α-glucosidase
Experimental: For determination of α-amylase, the measured extinction changes were compared for the following new substrates: 2H-7-O-(α-D-maltotriosyl)-4-methyl-8-nitrobenzopyran-2-one (compound S10), the corresponding maltotetraosyl compound (compound S11) as well as o-nitrophenyl α-maltotrioside.
585 mg of NaCl and 200 mg of compound S10 were dissolved in 100 ml of M/15 phosphate buffer, pH 6.0. 20 μl of urine were pipetted into 1 ml of this solution which was thoroughly mixed. The change in absorbance at 365 nm was continuously recorded in a photometer with a pen recorder attached. The change in absorbance per miute (delta A/min) was calculated from the recording on the pen recorder, and the enzyme activity (U/L) was calculated using the following formula: [formula] 1.02=assay volume including the sample, in ml 0.02=sample volume in ml

acid phosphatase = target: T1, acid phosphatase (Homo sapiens, UniProt P15309); assay: Kinetic determination of acid phosphatase in seminal plasma; type: biochemical
T1 construct: from tissue; host or cells: seminal plasma, diluted 1:101
T1 sequence (P15309 33-386): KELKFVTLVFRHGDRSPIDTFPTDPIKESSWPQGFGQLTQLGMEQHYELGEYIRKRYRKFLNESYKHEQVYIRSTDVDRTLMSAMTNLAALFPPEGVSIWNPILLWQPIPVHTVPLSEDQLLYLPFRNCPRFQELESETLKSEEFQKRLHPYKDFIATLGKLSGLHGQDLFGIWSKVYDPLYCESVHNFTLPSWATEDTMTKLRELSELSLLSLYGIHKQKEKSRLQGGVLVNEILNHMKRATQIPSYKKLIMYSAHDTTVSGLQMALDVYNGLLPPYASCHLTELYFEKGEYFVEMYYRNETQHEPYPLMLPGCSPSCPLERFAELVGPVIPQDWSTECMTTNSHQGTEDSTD
Experimental: The activity of acid phosphatase could be kinetically determined substantially more sensitively with 2H-7-O-4-methyl-8-nitrobenzopyran-2-one phosphate (compound S13) than with nitrophenyl phosphate. The determination was carried out in seminal plasma, diluted 1:101 using both substrates. 0.01 ml of diluted sample was added to 1 ml of a buffered substrate solution, pH 4.8 and the extinction changes kinetically recorded at 405 or 365 nm.

SMILES: O=[N+]([O-])c1nc(Cl)ccc1O [3-Hydroxy-2-nitro-6-chloropyridine]
- pKa (pKa of the dyes A-OH): 3.9
- Extinction coefficient ([1]; pH 4.0, 365 nm): 7.84 1·mol^-1·cm^-1·10^3
- Extinction coefficient ([1]; pH 5.0, 365 nm): 11.87 1·mol^-1·cm^-1·10^3
- Extinction coefficient ([1]; pH 6.0, 365 nm): 12.9 1·mol^-1·cm^-1·10^3
- Extinction coefficient ([1]; pH 7.1, 365 nm): 13.2 1·mol^-1·cm^-1·10^3
- Extinction coefficient ([1]; pH 10, 365 nm): 13.2 1·mol^-1·cm^-1·10^3

SMILES: O=[N+]([O-])c1ncccc1O [3-Hydroxy-2-nitropyridine]
- pKa (pKa of the dyes A-OH): 5.1
- Extinction coefficient ([1]; pH 4.0, 405 nm): 0.50 1·mol^-1·cm^-1·10^3
- Extinction coefficient ([1]; pH 5.0, 405 nm): 2.32 1·mol^-1·cm^-1·10^3
- Extinction coefficient ([1]; pH 6.0, 405 nm): 5.09 1·mol^-1·cm^-1·10^3
- Extinction coefficient ([1]; pH 7.1, 405 nm): 5.80 1·mol^-1·cm^-1·10^3
- Extinction coefficient ([1]; pH 10, 405 nm): 5.90 1·mol^-1·cm^-1·10^3

SMILES: O=[N+]([O-])c1ccnc(Cl)c1O [3-Hydroxy-4-nitro-2-chloropyridine]
- pKa (pKa of the dyes A-OH): 3.1
- Extinction coefficient ([1]; pH 4.0, 405 nm): 4.93 1·mol^-1·cm^-1·10^3
- Extinction coefficient ([1]; pH 5.0, 405 nm): 5.34 1·mol^-1·cm^-1·10^3
- Extinction coefficient ([1]; pH 6.0, 405 nm): 5.40 1·mol^-1·cm^-1·10^3
- Extinction coefficient ([1]; pH 7.1, 405 nm): 5.48 1·mol^-1·cm^-1·10^3
- Extinction coefficient ([1]; pH 10, 405 nm): 5.4 1·mol^-1·cm^-1·10^3

SMILES: Cc1cc(=O)oc2c([N+](=O)[O-])c(O)ccc12 [4-Methyl-8-nitrobenzopyran-2-one, 2H-7-hydroxy-4-methyl-8-nitrobenzopyran-2-one]
- pKa (pKa of the dyes A-OH): 4.45

SMILES: O=c1oc2cc(O)ccc2cc1[N+](=O)[O-] [7-hydroxy-3-nitrocoumarin]
- absorption maximum ([1]; pH<6): 390 nm
- absorption maximum ([1]; pH>8): 450 nm

SMILES: O=c1ccc2nc3ccc(O)cc3oc-2c1 [Resorufin, 3H-7-hydroxyphenoxazin-3-one]
- Extinction coefficient ([1]; pH 4.0, 574 nm, mercury lamp photometer, calculated): 1.00 1·mol^-1·cm^-1·10^3
- Extinction coefficient ([1]; pH 4.0, 578 nm, variable wavelength photometer): 0.75 1·mol^-1·cm^-1·10^3
- Extinction coefficient ([1]; pH 5.0, 574 nm, mercury lamp photometer, calculated): 7.4 1·mol^-1·cm^-1·10^3
- Extinction coefficient ([1]; pH 5.0, 578 nm, variable wavelength photometer): 5.7 1·mol^-1·cm^-1·10^3
- Extinction coefficient ([1]; pH 6.0, 574 nm, mercury lamp photometer, calculated): 29.64 1·mol^-1·cm^-1·10^3
- Extinction coefficient ([1]; pH 6.0, 578 nm, variable wavelength photometer): 22.80 1·mol^-1·cm^-1·10^3
- Extinction coefficient ([1]; pH 7.1, 574 nm, mercury lamp photometer): 49.87 1·mol^-1·cm^-1·10^3
- Extinction coefficient ([1]; pH 7.1, 578 nm, variable wavelength photometer): 39.6 1·mol^-1·cm^-1·10^3
- Extinction coefficient ([1]; pH 10, 574 nm, mercury lamp photometer): 55.42 1·mol^-1·cm^-1·10^3
- Extinction coefficient ([1]; pH 10, 578 nm, variable wavelength photometer): 41.000 1·mol^-1·cm^-1·10^3

SMILES: Cc1cc(=O)oc2c([N+](=O)[O-])c(O[C@H]3O[C@H](CO)[C@@H](O[C@H]4O[C@H](CO)[C@@H](O[C@H]5O[C@H](CO)[C@@H](O)[C@H](O)[C@H]5O)[C@H](O)[C@H]4O)[C@H](O)[C@H]3O)ccc12 [compound S10, 2H-7-O-(α-D-Maltotriosyl)-4-methyl-8-nitrobenzopyran-2-one]
- absorbance change, fold greater than with the nitrophenyl derivative (α-amylase): 32 fold
- delta A/min (α-amylase): 0,635 A/min

SMILES: Cc1cc(=O)oc2c([N+](=O)[O-])c(O[C@H]3O[C@H](CO)[C@@H](O[C@H]4O[C@H](CO)[C@@H](O[C@H]5O[C@H](CO)[C@@H](O[C@H]6O[C@H](CO)[C@@H](O)[C@H](O)[C@H]6O)[C@H](O)[C@H]5O)[C@H](O)[C@H]4O)[C@H](O)[C@H]3O)ccc12 [compound S11, 2H-7-O-(α-D-Maltotetraosyl)-4-methyl-8-nitrobenzopyran-2-one]
- absorbance change, fold greater than with the nitrophenyl derivative (α-amylase): approximately 14 fold
- delta A/min (α-amylase): 0,134 A/min

SMILES: O=[N+]([O-])c1ncccc1O[C@H]1O[C@H](CO)[C@@H](O[C@H]2O[C@H](CO)[C@@H](O[C@H]3O[C@H](CO)[C@@H](O)[C@H](O)[C@H]3O)[C@H](O)[C@H]2O)[C@H](O)[C@H]1O [compound S12, 3-O-(α-D-Maltotriosyl)-2-nitropyridine]
- absorbance changes in comparison with the state of the art (α-amylase; without auxiliary enzyme, immediately linear kinetics): sufficiently high absorbance changes

SMILES: Cc1cc(=O)oc2c([N+](=O)[O-])c(OP(=O)(O)O)ccc12 [compound S13, 2H-7-O-(Phosphoryl)-4-methyl-8-nitrobenzopyran-2-one]
- absorbance change, fold greater than for nitrophenyl phosphate (acid phosphatase): about 13 fold
- Ratio of the absorbance changes (acid phosphatase; relative to p-nitrophenyl phosphate): 13
- delta A/min (acid phosphatase; seminal plasma diluted 1:101, pH 4.8, 405 or 365 nm): 0,0975 A/min

SMILES: O=[N+]([O-])c1ccccc1O[C@H]1O[C@H](CO)[C@@H](O[C@H]2O[C@H](CO)[C@@H](O[C@H]3O[C@H](CO)[C@@H](O)[C@H](O)[C@H]3O)[C@H](O)[C@H]2O)[C@H](O)[C@H]1O [nitrophenyl derivative, o-nitrophenyl α-maltotrioside]
- delta A/min (α-amylase): 0,020 A/min

SMILES: O=[N+]([O-])c1ccccc1O [o-Nitrophenol]
- pKa (pKa of the dyes A-OH): 7.08
- Extinction coefficient ([1]; pH 4.0, 405 nm): 0.47 1·mol^-1·cm^-1·10^3
- Extinction coefficient ([1]; pH 5.0, 405 nm): 0.48 1·mol^-1·cm^-1·10^3
- Extinction coefficient ([1]; pH 6.0, 405 nm): 0.75 1·mol^-1·cm^-1·10^3
- Extinction coefficient ([1]; pH 7.1, 405 nm): 2.34 1·mol^-1·cm^-1·10^3
- Extinction coefficient ([1]; pH 10, 405 nm): 4.01 1·mol^-1·cm^-1·10^3

SMILES: O=[N+]([O-])c1ccccc1O[C@@H]1O[C@H](CO)[C@H](O)[C@H](O)[C@H]1O [o-Nitrophenyl galactoside, o-nitrophenyl-β-galactoside]
- absorbance change (IgE): 0.176

SMILES: O=[N+]([O-])c1ccc(O)cc1 [p-Nitrophenol]
- Extinction coefficient ([1]; pH 4.0, 405 nm): 0.20 1·mol^-1·cm^-1·10^3
- Extinction coefficient ([1]; pH 5.0, 405 nm): 0.40 1·mol^-1·cm^-1·10^3
- Extinction coefficient ([1]; pH 6.0, 405 nm): 1.50 1·mol^-1·cm^-1·10^3
- Extinction coefficient ([1]; pH 7.1, 405 nm): 9.7 1·mol^-1·cm^-1·10^3
- Extinction coefficient ([1]; pH 10, 405 nm): 18.30 1·mol^-1·cm^-1·10^3

SMILES: O=[N+]([O-])c1ccc(O[C@@H]2O[C@H](CO)[C@@H](O)[C@H](O)[C@H]2O)cc1 [p-nitrophenyl derivative, p-nitrophenyl β-D-glucopyranoside]
- Absorbance Difference/min delta A/min (β-glucosidase): 0,0476 A/min

Now from value to compound:

- pKa (pKa of the dyes A-OH): 5.55
- absorption maximum [1]: 578 nm
- molar extinction coefficient ([1]; 578 nm and pH 7.1): 64,420 1.mol^-1.cm^-1
SMILES: N#Cc1c2ccc(=O)cc-2oc2cc(O)ccc12 [compound C1, 3H-7-Hydroxy-9-cyanoxanthen-3-one]

- fold larger absorbance change per minute than with p-nitrophenyl β-D-glucopyranoside (β-glucosidase): approximately 7 fold
- Absorbance Difference/min delta A/min (β-glucosidase): 0,332 A/min
SMILES: O=[N+]([O-])c1ncccc1O[C@@H]1O[C@H](CO)[C@@H](O)[C@H](O)[C@H]1O [compound S5, 3-O-(β-D-Glucopyranosyl)-2-nitropyridine]

- absorbance change (IgE): 0.298
- fold higher absorbance than o-nitrophenyl-β-galactoside (IgE): approximately 1.7 fold
SMILES: O=[N+]([O-])c1ncccc1O[C@@H]1O[C@H](CO)[C@H](O)[C@H](O)[C@H]1O [compound S7, 3-O-(β-D-Galactopyranosyl)-2-nitropyridine]
